PMC5766510, “Development of a PET radioligand for potassium channels to image CNS demyelination” (Scientific Reports, 2018)
Where two headings read alike, the source gives them in different places.

Assays:
[1] = test system: voltage-gated K^+ channels in demyelinated axons; format: in vivo
Excerpt: Thirty minutes post-injection of the radiolabeled drug, the mice were euthanized and their brains dissected without perfusion to prevent washout of the drug. After dissection, the brains were frozen, cut into thin sections and collected on glass slides. The brain slices were then apposed to autoradiography film to reveal the distribution of the drug in the brain at the time of death. After autoradiography, the same brain sections were stained with the myelin-specific dye Luxol fast blue (LFB).
Number of animals per group was determined using statistical power analysis (α = 0.05, power = 0.80). […] The brains were embedded in Optimal Cutting Temperature (Tissue-Tek), frozen in dry ice and stored at −80 °C. Frozen brains were sliced in a cryostat at 20 μm thickness, the sections mounted on Superfrost Plus slides (Fisher) and allowed to dry at room temperature for at least 30 min. Next, the slides were placed in a cassette in front of autoradiography film (Denville scientific) sealed in the dark at −80 °C for 14–21 days. After that time the cassette was allowed to warm up to room temperature and the films developed inside a dark room using a film processor (Konica). The films were then scanned using an EPSON Perfection V750 scanner (Positive film mode, 8-bit grayscale, 1,200 dpi). After digitizing the radiographs, the same slides were stained using Luxol fast blue (LFB) and cresyl violet. For [^18F]3-F-4-AP autoradiography in rats we injected 1–2 μCi per g. After euthanasia, the brains were dissected without perfusion, frozen in dry ice and sliced in a cryostat at −20 °C.
1 min) and left in LFB solution (0.1 g LFB, 100 mL of 95% EtOH, 0.5 mL glacial acetic acid) overnight at 56 °C. Next morning, the slides were rinsed in 95% EtOH and ddH2O to remove the excess of dye, differentiated in lithium carbonate solution (0.05 g in 100 mL) for 30 s, 70% EtOH for 30 s and rinsed in ddH2O. The differentiation steps were repeated until the gray matter was clear and the white matter appeared blue and sharply defined. Afterwards, the slides were counterstained in cresyl violet (0.1 g in 100 mL of ddH2O, 0.1 mL acetic acid) for 30 s. The slides were differentiated in 95 % EtOH for 5 min and dehydrated (100% EtOH, 2x 5 min ea; 100 % xylene, 2 x, 5 min ea) before mounting with permount (Electron Microscopy Sciences). After staining, images of the slides were collected using the CRi Pannoramic Whole Slide Scanner (Perkin Elmer) equipped with a 20x objective.
Image analysis: The histology images were superimposed on the autoradiography images using Photoshop. The histology images were used to precisely outline the corpus callosum, the cortex and a ~1.5 mm-wide area around the brain (background). The autoradiographic signal from each area was quantified. The background signal was subtracted from the all the areas and defined as zero. The signal intensity of the cortex was set as 1.0 and the signal intensity of the corpus callosum was measured relative to the cortex. Color images were created using the 6-shades look up table (LUT) in ImageJ. […]

[2] = target: non-inactivating Shaker channel from D. melanogaster (Drosophila melanogaster, UniProt P08510, DEL6-46); assay: cell-based
Protocol: See SI for additional details.
(§1) CI95 = [Upper Limit. Lower Limit]; where Upper Limit = 10^(logEC50+s.d.) and Lower Limit = 10^(logEC50−s.d.). […]
exchanging the external solution (top and guard chambers) several times. After application, cells were voltage-clamped at least 5 min at 0mV, then voltage-clamped at -80mV for 1-2 min.
K+ currents were generated by applying series of 50 ms pulses from -70 mV to +40 mV in increments of 10 mV. The effect of the drug was assessed by measuring the relative intensity of the K+ current before and after applying varying drug concentration at a constant voltage (typically +20 mV) and at the end of the test-pulse. Data acquisition and analysis of the traces was performed using Gpatch software (Department of Anesthesiology, University of California, […]
Los Angeles). […]

[3] = test system: K^+ channels in explanted mouse optic nerves; assay: Compound action potential (CAP) of dissected mouse optic nerves; conditions: for activity in enhancing the CAP / IC50: dysmyelinated (Shiverer) optic nerves; for IC50: CAP enhancement, given as IC50; for times less potent: from EC50 values, versus 4-AP and 3-F-4-AP
Protocol: Therefore, we tested the effects of these compounds on the compound action potential (CAP) of dysmyelinated optic nerves from control and Shiverer mice (Fig. 2E).
Optic nerves were dissected from 12–16 week old Shiverer (Mbp^shi/shi) and control mice (Mbp^+/shi and Mbp^+/+). Compound action potentials (CAP) were recorded using suction electrodes as described by Stys et al.[91]. See SI for additional details.
as §1
Dissection of optic nerves: Optic nerves were dissected from 12-16 week old Shiverer (Mbpshi/shi) and control mice (Mbp+/shi and Mbp+/+). Mice were euthanized by CO2 overdose and the optic nerves were quickly dissected between the eyeball and the optic chiasm. The nerves […]
Optic nerve electrophysiology: Compound action potentials (CAP) from dysmyelinated nerves (Shiverer mice, Mbpshi/shi) and myelinated nerves (litermate controls, Mbp+/shi and Mbp+/+) were […]
between two suction electrodes (stimulus and recording electrodes) forming a tight seal on each end. Two additional electrodes were placed in the bath for reference. A supramaximal pulse (250 mV, 20 μs) was applied at the stimulating end of the nerve. The resulting CAP was amplified from the recording electrode using a high impedance low-noise amplifier (EG&G Princeton Applied Research Corporation) sampled at 100 kHz and filtered at 10 kHz. To assess […]
concentrations to the recording chamber after the CAP was allowed to stabilize for 5 min while […]
pulsing repeatedly. After each measurement, the chamber was washed for 5 min (flow 1 […]
mL/min) with oxygenated aCSF. […]
conduction and the temperature was monitored throughout the experiment. CAP recordings were acquired with a SBC6711 board (Innovative Integration) controlled by in-house written software. Analysis of the traces was done using an in-house software. The half-maximal […]
amplitude vs. concentration and fitted to the Hill equation using Origin. […]
Compound action potential of nerve recorded by suction electrode: a theoretical and experimental analysis. […]

C57Bl/6 J mice = assay: In vivo effects (signs of neuroexcitation) after intraperitoneal injection; conditions: mouse, different doses
Protocol: In this experiment, we injected each drug intraperitoneally at different concentrations into mice and looked for signs of neuroexcitation (Fig. 3B).
10-week-old female C57Bl/6 J mice were given an intraperitoneal injection of the drug under investigation and monitored continuously for 4 h. […] At least 72 h passed between injections to the same mice.

in vitro = conditions: mouse, microsomes
[4] = relative K^+ current at +20 mV, Hill equation fit, read-out: Half-maximal inhibitory concentration (IC50)

Chain of non-inactivating Shaker channel from D. melanogaster (P08510 other isoform, or with tags, fused parts or gaps DEL6-46): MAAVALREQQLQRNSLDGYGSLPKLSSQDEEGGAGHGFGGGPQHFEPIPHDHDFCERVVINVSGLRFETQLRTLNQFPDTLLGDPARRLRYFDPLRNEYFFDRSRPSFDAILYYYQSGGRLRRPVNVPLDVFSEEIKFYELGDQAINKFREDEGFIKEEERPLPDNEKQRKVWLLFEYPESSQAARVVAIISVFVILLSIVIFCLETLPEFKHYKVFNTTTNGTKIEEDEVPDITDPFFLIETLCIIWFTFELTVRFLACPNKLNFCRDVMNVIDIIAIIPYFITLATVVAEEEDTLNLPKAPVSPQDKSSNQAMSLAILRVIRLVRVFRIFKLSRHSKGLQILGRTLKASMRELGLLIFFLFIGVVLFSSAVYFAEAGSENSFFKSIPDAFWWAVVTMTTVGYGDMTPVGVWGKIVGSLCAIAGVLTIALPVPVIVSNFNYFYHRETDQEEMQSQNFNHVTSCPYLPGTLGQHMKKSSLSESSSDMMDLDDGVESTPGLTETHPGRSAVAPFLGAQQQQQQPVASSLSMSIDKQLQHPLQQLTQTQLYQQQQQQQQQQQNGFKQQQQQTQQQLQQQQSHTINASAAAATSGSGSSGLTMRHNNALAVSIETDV

Question: For O=[14CH]C[C@@H](O)[C@H](O)[C@H](O)CO [2-DG, [1-^14C]2-deoxy-D-glucose, reference compound], which “difference in brain distribution between wild type and Shiverer mice” value ([1]; mouse, in vivo) is on record?
Answer: The value was “no differences were seen”.

Question: For Nc1ccnc(F)c1 [2-F-4-AP, 2-fluoro-4-aminopyridine], which IC50 [2, 4] is on record?
Answer: Its IC50 is > 10 mM.

Question: What about the “activity in enhancing the CAP” value [3] of the same compound?
Answer: The value was “inactive”.

Question: What about the “signs of neuroexcitation, summary in words relative to 4-AP” value (C57Bl/6 J mice) of the same compound?
Answer: The value was “did not cause any effects at doses up to 20 times greater”.

Question: For Nc1ccncc1CCF [3-FEt-4-AP, 3-fluoroethyl-4-aminopyridine], which IC50 [2] is on record?
Answer: Its IC50 is > 10 mM.

Question: And the “activity in enhancing the CAP” value [3]?
Answer: The value was “inactive”.

Question: Which results are given for Nc1ccncc1CF [3-FMe-4-AP, 3-fluoromethyl-4-aminopyridine]?
Answer: IC50 [2, 4]: 7.45 mM; IC50 [3]: 386 µM; times less potent [3]: 4–6 times; signs of neuroexcitation, summary in words relative to 4-AP (C57Bl/6 J mice): half as potent as 4-AP

Question: What does the source list for Nc1ccncc1CO [3-HOMe-4-AP, 3-hydroxymethyl-4-aminopyridine, reference compound]?
Answer: IC50 [2]: 4.38 mM; IC50 [3]: 386 µM; times less potent [3]: 4–6 times; signs of neuroexcitation, summary in words relative to 4-AP (C57Bl/6 J mice): did not cause any effects at doses up to 20 times greater

Question: With CC(C)NCC(O)COc1cccc2ccccc12 (centres unmarked) [Propranolol, propranolol] as the compound, how does the half-life (in vitro) read?
Answer: The half-life was 25.6 ± 2.1 min.

Question: With Nc1c[14cH]n[14cH]c1F [[^14C]3-F-4-AP, [2,6-^14C]4-amino-3-fluoropyridine] as the compound, how does the “relative autoradiographic signal intensity in corpus callosum” value ([1]; Shiverer (Mbp^shi/shi) mice, normalized to cortex) read?
Answer: The value was 0.878 ± 0.043.

Question: And the “increase in signal, Shiverer versus control white matter” value ([1]; corpus callosum)?
Answer: Its value is 29%.

Question: What about the “relative autoradiographic signal intensity in myelinated white matter” value ([1]; wild-type/control mice, normalized to cortex (gray matter = 1.0)) of the same compound?
Answer: The value was 0.679 ± 0.046.

Question: With Nc1c[14cH]n[14cH]c1 [[^14C]4-AP, [2,6-^14C]4-aminopyridine, reference compound] as the compound, how does the “autoradiographic signal in the demyelinated area” value ([1]; LPC-injected mice, 3 days after injection, normalized to cortex) read?
Answer: Its value is 0.733 ± 0.047.

Question: What about the “autoradiographic signal in the contralateral control area” value ([1]; LPC-injected mice, opposite hemisphere, normalized to cortex) of the same compound?
Answer: Its value is 0.507 ± 0.070.
